The values below come from US8481576B2 (Abbott GmbH & Co. KG, priority 2004, dated 2013).

The target of one assay is T1, h5-HT5A receptor (Homo sapiens, UniProt P47898).
T1 construct: expressed in transfected cells; host or cells: HEK293
T1 sequence (P47898 whole entry): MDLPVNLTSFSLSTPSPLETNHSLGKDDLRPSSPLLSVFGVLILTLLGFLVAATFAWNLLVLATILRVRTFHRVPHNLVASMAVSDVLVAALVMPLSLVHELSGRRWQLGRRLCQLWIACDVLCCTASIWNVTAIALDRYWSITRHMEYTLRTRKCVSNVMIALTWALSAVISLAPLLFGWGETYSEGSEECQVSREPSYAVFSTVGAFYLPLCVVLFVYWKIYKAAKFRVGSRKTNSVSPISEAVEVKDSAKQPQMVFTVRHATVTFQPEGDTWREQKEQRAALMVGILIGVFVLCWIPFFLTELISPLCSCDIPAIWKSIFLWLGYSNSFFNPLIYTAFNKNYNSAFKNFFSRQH
Put plainly: [3H]5-CT binding assay h5-HT5A. Particulars: membranes from HEK293 cells expressing h5-HT5A, 2.5 nM [3H]5-CT; read-out: Binding affinity 5-HT5A (Ki). The method in brief: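 Membranes from HEK293 cells stably expressing h5-HT5A incubated with 2.5 nM [3H]5-CT and compound in 100 mM Tris-HCl pH 7.7, 1 mM EDTA, 75 min at 30° C. Nonspecific binding with 10 μM methiothepine; filtration and scintillation counting give Ki or IC50.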
With `COc1cccc(OC)c1CNC(=N)Nc1ccn(-c2ccccc2)n1` [Example 219, N-(2,6-dimethoxybenzyl)-N′-(1-phenyl-1H-pyrazole-3-yl)guanidine], the Ki (in general, the equilibrium dissociation constant of an inhibitor or competing ligand from its target) is under 50 nM.

In the case of `COc1ccccc1CNC(=N)Nc1ccn(-c2ccccc2)n1` [Example 220, N-(2-methoxybenzyl)-N′-(1-phenyl-1H-pyrazole-3-yl)guanidine], the Ki was under 50 nM.

In the case of `COc1ccc(C(F)(F)F)cc1CNC(=N)Nc1nc(-c2ccccc2)cs1` [Example 221, N-[2-methoxy-5-(trifluoromethyl)benzyl]-N′-(4-phenyl-1,3-thiazole-2-yl)guanidine], the Ki is over 500 nM.

On to `COc1cccc(OC)c1CNC(=N)Nc1nc2c(s1)CNCC2` [Example 223, N-(2,6-dimethoxybenzyl)-N′-(4,5,6,7-tetrahydro[1,3]thiazolo[5,4-c]pyridine-2-yl)guanidine], for which the Ki is under 50 nM.

In the case of `COc1cccc(OC)c1CNC(=N)Nc1nc2c(s1)CN(C(C)=O)CC2` [Example 224, N-(5-acetyl-4,5,6,7-tetrahydro[1,3]thiazolo[5,4-c]pyridine-2-yl)-N′-(2,6-dimethoxybenzyl)guanidine], the Ki is under 50 nM.

For `COc1cccc(OC)c1CNC(=N)Nc1nc2c(s1)CN(S(=O)(=O)c1ccccc1)CC2` [Example 225, N-(2,6-dimethoxybenzyl)-N′-[5-(phenylsulfonyl)-4,5,6,7-tetrahydro[1,3]thiazolo[5,4-c]pyridine-2-yl]guanidine], the Ki was under 50 nM.

With `COc1cccc(OC)c1CNC(=N)Nc1nc2c(s1)CN(Cc1ccccc1)CC2` [Example 226, N-(5-benzyl-4,5,6,7-tetrahydro[1,3]thiazolo[5,4-c]pyridine-2-yl)-N′-(2,6-dimethoxybenzyl)guanidine], the Ki was under 50 nM.

For “Methyl-[2-({imino[(2-methoxybenzyl)amino]methyl}amino)-1,3-thiazole-4-yl]acetate [Example 47]”, the Ki is under 50 nM.

On to “N-4H-chromeno[4,3-d][1,3]thiazole-2-yl-N′-(2,6-dimethoxybenzyl)guanidine [Example 222]”, for which the Ki was under 50 nM.

Regarding “N-(2,6-dimethoxybenzyl)-N′-(5-methyl-4-phenyl-1,3-thiazole-2-yl)guanidine hydrobromide [Example 81]”, the Ki is under 50 nM.

As to “N-(2-methoxybenzyl)-N′-1,3-thiazole-2-ylguanidine hydrochloride [Example 11]”, the Ki lay in the range of 50 to 500 nM.

“N-[4-(2-{[[(2,6-dimethoxybenzyl)amino](imino)methyl]amino}-1,3-thiazole-4-yl)phenyl]acetamide acetate [Example 79]”: the Ki was under 50 nM.

A further assay has as its target HIV-1 RT (Human immunodeficiency virus type 1 group M subtype B, UniProt P03366).
Assay: not given
Particulars: Bioorg. Med. Chem. Lett. 2000 (10), 265-268; cited from earlier work.
For the molecule `COc1ccccc1CCNC(=N)Nc1nccs1` [N-[2-(2-methoxyphenyl)ethyl]-N′-1,3-thiazole-2-ylguanidine], the biological activity result is reported as “did not show any demonstrable biological activity”.
